Data as given in US8420614B2, “Compositions and methods for inhibiting or reversing fibrotic disorders” (Albany Medical College, priority 2007, dated 2013).

Experiments:
Type in all cases: cell-based, human
SMCA in NADF = experiment: SMCA expression (western blot, immunostaining), NADF; settings: TGF-β1 10 ng/ml
Experimental: (§1) NADF and HTSF lysates were analyzed for protein expression by western blotting with the following primary antibodies at a concentration of 1:1000: cyclin D1, (BD-Biosciences; DCS-6, San Jose, Calif.), cyclin A, (Santa Cruz Biotech.; H 432, Santa Cruz, Calif.), p21^cip1 (BD-Biosciences; sx-118, San Jose, Calif.), p15^ink4b (Cell Signaling, Danvers, Mass.), Hic-5 (BD Transduction, Franklin Lakes, N.J.), RhoGDI (Santa Cruz Biotech, Santa Cruz, Calif.), H2A (Cell Signaling, Danvers, Mass.) and ERK½ (Santa Cruz Biotech, Santa Cruz, Calif.), Vinculin (Sigma Aldrich), SMCA (Sigma Aldrich), FN (Neomarkers), Collagen type I (Sigma Aldrich), Paxillin (Sigma Aldrich). Western blots were developed using SuperSignal chemiluminescent substrate (Pierce, Rockford, Ill.) and quantitated with a Fluor-S MultiImager and Quantity-One software (Bio-Rad, Hercules, Calif.). Membranes were stripped using Restore Stripping (Pierce, Rockford, Ill.) and reprobed (no more than once) with other antibodies.
(§2) Cells were stained as previously described (Dabiri et al., 2006), with slight modification. Control or modified cells were cultured at 30% confluency in complete medium for 18 hours, then washed with Dulbecco's phosphate-buffered saline and serum-free medium was added, followed by 10 ng/ml of TGF-β1 or 20 ng/ml of anti-TGF-β1 (R&D Systems, Minneapolis, Minn.) where specified. […]

[1] = system: cyclin A, cyclin D1, p21^cip1, p15^ink4b in NADF; experiment: Western blot of cell cycle proteins, NADF
Experimental: as §1

[2] = system: collagen type I and FN in NADF; experiment: Western blot of ECM proteins, NADF; settings: TGF-β1 10 ng/ml, 5 days
Experimental: as §1

Hic-5 = experiment: Western blot of Hic-5 expression, NADF; settings: TGF-β1 10 ng/ml
Experimental: as §1
Either NADF (5×10^3 cells) or HTSF (5×10^3 cells) were cultured in DMEM plus serum for 24 hrs with either TGF-β1 (10 ng/ml) or anti-TGF-β1 (20 μg/ml) where indicated. […] Protein expression was analyzed by western blot, as described above. […]

NADF [3] = experiment: CyQUANT cell growth, NADF; settings: serum-containing media; anti-TGF-β 20 μg/ml or TGF-β1 10 ng/ml
Experimental: (§3) All cells used in these studies were cultured (37° C., 5% CO2.) in serum-containing media which consisted of Dulbecco's modification of Eagle's Minimum Essential Medium, 10% fetal bovine serum and 1% penicillin-streptomycin (all of which were obtained from Gibco Invitrogen Corporation, Carlsbad, Calif.). NADF were purchased from Clonetics-Cambrex BioScience (Walkersville, Md.). HTSF were isolated from biopsies taken from hypertrophic scars resected therapeutically from pediatric patients at Shriner's Burn Hospital and Massachusetts General Hospital, (Boston, Mass.). Tissue was processed according to the protocol of Ronnov-Jessen and Peterson (1993) and as described in (Dabiri et al., 2006). All tissues were acquired anonymously under protocols approved by the relevant medical and ethical committees of the Shriner's Burn Center in accordance with the Declaration of Helsinki Principles and patients gave their written, informed consent.
(§4) Cell growth was measured using CyQUANT® Cell Proliferation Assay Kit (C-7026, Invitrogen, Carlsbad, Calif.). […] Plates were read on Spectra Max Gemini-EM (Molecular Devices, Sunnyvale, Calif.) with an excitation and emission spectrum 480 nm and 520 nm, respectively.

SMCA in HTSF = experiment: SMCA expression (western blot, immunostaining), HTSF; settings: TGF-β1 10 ng/ml, 5 days
Experimental: as §1, §2

[4] = system: supermature focal adhesions in NADF; experiment: Focal adhesion measurements, NADF; settings: TGF-β1 10 ng/ml for 5 days
Experimental: Cells were stained as previously described (Dabiri et al., 2006), with slight modification. Control or modified cells were cultured at 30% confluency in complete medium for 18 hours, then washed with Dulbecco's phosphate-buffered saline and serum-free medium was added, followed by 10 ng/ml of TGF-β1 or 20 ng/ml of anti-TGF-β1 (R&D Systems, Minneapolis, Minn.) where specified. Cells were allowed to incubate for 5 days. On the fifth day, cells were washed fixed, permeabilized, and blocked for 1 hour. Samples were then incubated sequentially with mAb against vinculin (1:400) (Sigma Chemical Co., St Louis, Mo.), and then with a mixture of goat anti-mouse Alexa Fluor 488 (1:1000) and TRITC-conjugated phalloidin (1:100). […] Images were captured with attached Cooke Sensicam digital camera and deconvolved using Slidebook 3.0.10.3 software (FFTW licensed from Massachusetts Institute of Technology, Cambridge, Mass.).
Focal adhesion measurements were performed as described previously (Dabiri et al., 2006). In brief, cells (n=20) were chosen that were not in contact with any other cell and were well spread. Images were observed using Olympus BX60 microscope equipped with an immersion oil objective (×60/1.25, phase) and captured as described above. Vinculin staining was measured for area (μm^2) of focal adhesion using Image Pro-Plus version 4.5.1.26 (Media Cybermatic, Silver Spring, Md.). […]

NADF [5] = experiment: BrdU incorporation, NADF; settings: 24 h BrdU pulse; TGF-β1 10 ng/ml
Experimental: HTSF (5×10^3 cells) or NADF (5×10^3 cells) were plated in serum free media (Dulbecco's […] 1:1, Hams F12 1:1, transferrin 5 μg/ml, insulin 5×10^−7M, ascorbate 0.2 mM, glutamine 1:100, penicillin-streptomycin 1:100) for 18 hrs in Labtek™ chambers (Nalge Nunc International, Naperville, Ill.) at 37° C. Cells were washed three times with Dulbecco's phosphate buffered saline (DPBS) (Gibco Invitrogen International, Carlsbad, Calif.) and to each well DMEM containing serum was added, 10 μg/ml of BrdU (Biodesign International, Saco, Me.), with or without the addition of 10 ng/ml of TGFβ1. In some wells anti-TGF-β (20 μg/ml) was also added as indicated. Cells were incubated (24 hrs), washed with DPBS, fixed with 3.7% formaldehyde (Sigma Chemical Co., St. Louis, Mo.) in DPBS (10 min), permeabilized with 0.5% Triton X-100 (5 min) (Sigma Chemical Co., St. Louis, Mo.), blocked (1 hr) with 2% bovine serum albumin (Sigma Chemical Co., St. Louis, Mo.) in PBS then DNAase (Promega, Madison, Wis.) treated for 30 min. […] Coverslips were mounted in Gelmount (Biomedia Corp., Biomedia Corp., Foster City, Calif.) and slides were analyzed on an Olympus BX60 microscope using 10× objective. […] The percent positive BrdU incorporation was determined by dividing the number of nuclei labeled with both BrdU (green) and Hoescht (blue) by the total number of nuclei (blue)×100.

HTSF [6] = experiment: Floating collagen lattice contraction, HTSF; settings: TGF-β1 10 ng/ml added to Hic-5 siRNA treated HTSF
Experimental: (§5) Before preparing the gels, 5 ml of BSA (Sigma) solution (0.1% BSA in PBS, filter sterilized) was pipetted into each well of a six-well plate, incubated at 37° C. for 1 hour. 1.4 ml of bovine dermal collagen Vitrogen (Cohesion, Palo Alto, Calif.) was mixed with 0.4 ml of 5×DMEM in a 15 ml centrifuge tube cooled on ice. The pH was adjusted to a range of 7.2-7.5, using a sterile solution of 1N NaOH. The control and modified cells were trypsinized from a confluent tissue culture plate and 0.2 ml of the cell suspension (containing 5×10^5 cells) was added to the collagen solution, gently mixed and poured into a well of the six-well plate. Collagen lattices were allowed to gel for 60 minutes in a 5% CO2 atmosphere at 37° C. After 60 minutes, the collagen lattices were detached from the surface of the well by rimming the lattice with a sterile spatula and gently swirling the six-well plate. 2 ml of serum-free medium was added to each well. Plates were incubated in a 5% CO2 atmosphere at 37° C. To measure contraction, the tissue culture dishes were periodically placed on top of a transparent metric ruler on an opaque background, and the diameters of the lattices were recorded.

HTSF [7] = experiment: CyQUANT cell growth, HTSF; settings: serum-containing media; anti-TGF-β 20 μg/ml or TGF-β1 10 ng/ml
Experimental: as §3, §4

NADF [8] = experiment: Floating collagen lattice contraction, NADF; settings: TGF-β1 10 ng/ml; floating collagen lattice three days
Experimental: as §5

Substance: TGF-β1: recombinant, active TGF-β1 added exogenously (R&D Systems)
- increase in percent positive SMCA cells in NADF (SMCA in NADF; 5 days): 7 fold
- expression of SMCA and Hic-5 in NADF (SMCA in NADF; serum free media five days): both SMCA and Hic-5 were upregulated
- cyclin A and cyclin D1 levels in NADF ([1]; 24 h, TGF-β1 10 ng/ml): decreased cyclin A and cyclin D1 levels
- increase in p15^ink4b level in NADF compared to NADF without TGF-β1 ([1]; 24 h, TGF-β1 10 ng/ml): 5.25 fold
- increase in p21^cip1 level in NADF compared to NADF without TGF-β1 ([1]; 24 h, TGF-β1 10 ng/ml): 2.5 fold
- increase in expression of p15^ink4b in NADF ([1]; siRNA experiment, TGF-β1 10 ng/ml for 24 hrs, unaffected by knockdown of Hic-5): 4 fold
- expression of collagen and FN in NADF [2]: significantly increased the expression of these ECM proteins
- expression of Hic-5 in NADF (Hic-5; 24 h): significantly increased the expression of Hic-5
- expression of Hic-5 in the nucleus in NADF (Hic-5; subcellular fractionation): significantly increased the expression of Hic-5 in the nucleus
- NADF proliferation (increase in cell number by day 3) (NADF [3]): statistically significant decrease in proliferation
- increase in the percentage of positive SMCA cells in HTSF in which Hic-5 was genetically ablated (SMCA in HTSF): 5 fold
- increase in the percentage of focal adhesions greater than 6 μm^2 in NADF [4]: ~10 fold
- percent BrdU positive nuclei in NADF (NADF [5]): statistically significant decrease in the percent positive nuclei
- ability of Hic-5 knocked-down HTSF to contract collagen (HTSF [6]): fully rescued the ability of HTSF to contract collagen
- HTSF proliferation (increase in cell number by day 3) (HTSF [7]): did not significantly alter the growth
- decrease in collagen diameter by NADF (NADF [8]): 3 fold
